One experiment relates to IRS1 phosphorylation. The experiment in a line: Immunoblot of treated cells, IRS1 phosphorylation. The class given is cell-based, human. How it is done: FIG. 4(A-F) illustrate: (A) Schematic diagram of linear and stapled WT and mutant peptides derived from p110α (SEQ ID NOs: 5, 6, 7 and 8). (B) Immunoblots of cell lysates immunoprecipitated with beads conjugated with anti-FLAG antibodies and then blotted with the indicated antibodies. Linear or stapled WT and mutant peptide were added into culture medium of the p110α E545K 3×FLAG KI cells for 16 hr. (C) Immunoblots of cell lysates immunoprecipitated with anti-p110α antibodies and then blotted with the indicated antibodies. Vaco481 CRC cells were treated with the stapled mutant peptides at the indicated concentration. (D) Immunoblots of cell lysates blotted with the indicated antibodies. The indicated cell lines were treated with the stapled mutant peptide. (E) Immunoblots of cell lysates blotted with the indicated antibodies. […]
For Co-immunoprecipitation (Co-IP), cells were harvested, washed with PBS, and then lysed in IP buffer (50 mMTris [pH 7.4], 150 mMNaCl, 5 mMEDTA [pH 8.0], 0.5% NP40, 1 mM PMSF, complete Protease Inhibitor Cocktail tablet [Roche]; supplemented with phosphatase inhibitors [1 mM Na3VO4, 20 mM NaF, 0.1 mM b-glycerophosphate, 20 mM sodium pyrophosphate] when necessary). […] Lysates were then cleared by centrifugation (14,000 rpm, 10 min) and protein concentration in supernatants was determined with a BCA protein assay kit (Pierce, Rockford, Ill.). […]
(A western blot detects proteins with antibodies after separation by electrophoresis.)

Another experiment relates to AKT phosphorylation. The experiment in a line: Immunoblot of AKT phosphorylation in cancer cell lines treated with stapled peptides. It is filed as cell-based, human. On the set-up: AKT phosphorylation / AKT phosphorylation at both T308 and 5473 residues: dose or concentration left out as unconfirmed. The procedure: FIGS. 3(A-M) illustrate: (A, B) Mapping peptides (P3, SEQ ID NO: 1; P4 SEQ ID NO: 2; P5, SEQ ID NO: 3; P6, SEQ ID NO: 4) derived from mutant p110α that inhibit interaction between IRS1 and p110α E545K. The indicated peptides were added into cell lysates made from the p110α E545K 3×FLAG KI cells. Cell lysates were immunoprecipitated with beads conjugated with anti-FLAG antibodies and then blotted with anti-IRS1 antibodies. (C) Immunoblots of cell lysates made from the p110α E545K 3×FLAG KI cells. Cell lysates were immunoprecipitated with beads conjugated with anti-FLAG antibodies and then blotted with the indicated antibodies. (D) Immunoblots of cell lysate of Myc-tagged IRS1 plasmid, which co-transfected an ABD domain deletion construct of the FLAG-tagged p110α E545K mutant (ΔABD), incubated with the indicated amount of stapled p110α mutant peptides, and then immunoprecipitated with anti-FLAG antibodies and blotted with the indicated antibodies. (J, K) Immunoblot and graph of purified recombinant p110α E545K mutant proteins mixed with the indicated components and quantified using an in vitro lipid kinase assay. (L, M) Immunoblots of the indicated cell lines serum-starved, stimulated with 1 μg/ml insulin for 30 min, and then treated with or without the indicated peptides. Cell lysates were blotted with the indicated antibodies. All error bars show mean±SEM. *p<0.05, **p<0.001, t test.
FIG. 4(A-F) illustrate: (A) Schematic diagram of linear and stapled WT and mutant peptides derived from p110α (SEQ ID NOs: 5, 6, 7 and 8). (B) Immunoblots of cell lysates immunoprecipitated with beads conjugated with anti-FLAG antibodies and then blotted with the indicated antibodies. Linear or stapled WT and mutant peptide were added into culture medium of the p110α E545K 3×FLAG KI cells for 16 hr. (C) Immunoblots of cell lysates immunoprecipitated with anti-p110α antibodies and then blotted with the indicated antibodies. Vaco481 CRC cells were treated with the stapled mutant peptides at the indicated concentration. (D) Immunoblots of cell lysates blotted with the indicated antibodies. The indicated cell lines were treated with the stapled mutant peptide. (E) Immunoblots of cell lysates blotted with the indicated antibodies. The indicated cancer cell lines were treated or untreated with stapled WT or mutant peptide at […] for 2 hr. (F) Immunoblots of cell lysates were blotted with the indicated antibodies. The indicated cancer cell lines were treated with or without […] of stapled mutant peptide for 2 hr.
Colorectal cancer (CRC) cell lines DLD1, HCT116, Vaco481 and genetically engineered CRC cell lines were maintained in McCoy's 5A medium containing 10% fetal bovine serum (FBS). Lung cancer cell line H460 and breast cancer cell line T47D were cultured in RPMI 1640 medium plus 10% of FBS. Breast cancer cell line MDA-MB361 was maintained in Leibovitz's L-15 medium with 20% FBS. Human embryonic kidney HEK293 cells were cultured in DMEM medium containing 10% FBS. Mammalian cells were transfected with Lipofectamine in accordance with the manufacturer's instructions (Invitrogen).
For Co-immunoprecipitation (Co-IP), cells were harvested, washed with PBS, and then lysed in IP buffer (50 mMTris [pH 7.4], 150 mMNaCl, 5 mMEDTA [pH 8.0], 0.5% NP40, 1 mM PMSF, complete Protease Inhibitor Cocktail tablet [Roche]; supplemented with phosphatase inhibitors [1 mM Na3VO4, 20 mM NaF, 0.1 mM b-glycerophosphate, 20 mM sodium pyrophosphate] when necessary). For immunoblotting (IB) of phospho-specific proteins, unless stated otherwise, cells were lysed in urea buffer (100 mM NaH2PO4, 10 mM Tris-HCl, 8 M Urea, 1 mM Na3VO4, 20 mM NaF, 0.1 mM β-glycerophosphate, 20 mM sodium pyrophosphate, supplemented with complete Protease Inhibitor Cocktail tablet [Roche], pH 8.0). Lysates were then cleared by centrifugation (14,000 rpm, 10 min) and protein concentration in supernatants was determined with a BCA protein assay kit (Pierce, Rockford, Ill.). […]

For “H2N-SEITKQEK-D^549-FLW-S^553-HRHYC-COOH [stapled mutant peptide]”, the IRS1 phosphorylation entry with IRS1 phosphorylation is given as “did not interfere”. Moreover, the “AKT phosphorylation at both T308 and 5473 residues” value in the experiment with AKT phosphorylation (DLD1 cells harboring p110α E545K), in the experiment on AKT phosphorylation (H460 cells harboring p110α E545K), in the experiment on AKT phosphorylation (MDA-MB361 cells harboring p110α E545K) and in the experiment with AKT phosphorylation (Vaco481 cell line harboring p110α Q546P) was “reduced” in each case. In addition, the AKT phosphorylation entry in the experiment on AKT phosphorylation (HCT116 cells harboring p110α H1047R) is reported as “no effect”; in the experiment on AKT phosphorylation (RKO cells harboring p110α H1047R), “no effect”; in the experiment with AKT phosphorylation (T47D cells harboring p110α H1047R), “no effect”; in the experiment on AKT phosphorylation (WT-only DLD1 cells), “did not affect”; with AKT phosphorylation (mutant-only DLD1 cells), “reduced”. Also, in the experiment on AKT phosphorylation (serum-starved, 1 μg/ml insulin for 30 min), the “AKT phosphorylation when cell lines were stimulated by insulin” value is on record as “no effect”. In addition, the “AKT phosphorylation in cancer cells” value in the experiment with AKT phosphorylation (summary statement on FIG. 4) is recorded as “reduced”.

Source of the values: patent publication US20140005119A1, “COMPOSITIONS AND METHODS FOR INHIBITING THE ACTIVITY OF P110a MUTANT PROTEINS” (Case Western Reserve University, priority 2012, published 2014).
